Like-named read-outs stand apart in the source and are kept apart here.
Biological target: T1, Human BCL-XL protein (N-terminal HiBiT tagged BCL-XL in HT1080 cells) (Homo sapiens, UniProt Q07817)
T1 construct: expressed in transfected cells; host or cells: HT-1080 (ATCC CCL-121), stably transduced with lentivirus pLV-UBC-N-HiBiT-BCL-XL-PGK-puro and selected with puromycin
Test: HiBiT based degradation assay
Assay type: cell-based
Conditions: HT1080 cells expressing HiBiT-BCL-XL; for Ymin (24 h) / Ymin (6 h): BCL-XL degradation normalized with DMSO control; for DC50: BCL-XL degradation
Outline: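 This HiBiT degradation assay measured loss of BCL-XL in HT1080 cells that stably express an N-terminal HiBiT-BCL-XL fusion delivered by lentivirus. Cells were added to compound-spotted 384-well plates, and luminescence was read on a PHERAstar FSX reader. Signal was expressed relative to DMSO controls, curves were fitted by four-parameter logistic regression, and for hook-shaped curves the Ymin point served as the bottom plateau when calculating EC50.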

T1 sequence (Q07817 whole entry): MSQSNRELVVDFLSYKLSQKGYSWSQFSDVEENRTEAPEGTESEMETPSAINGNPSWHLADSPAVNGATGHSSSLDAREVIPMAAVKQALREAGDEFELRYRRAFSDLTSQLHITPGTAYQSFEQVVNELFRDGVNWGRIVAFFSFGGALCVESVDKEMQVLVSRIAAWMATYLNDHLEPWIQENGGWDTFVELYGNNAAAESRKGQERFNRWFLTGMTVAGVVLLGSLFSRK

| Ymin (24 h) | DC50 (24 h, read-out: EC50 (24 h)) [nM] | Ymin (6 h) | DC50 (6 h, read-out: EC50 (6 h)) [nM] | SMILES |
| --- | --- | --- | --- | --- |
| B (50% ≤ Ymin < 70%) | < 100 | B (50% ≤ Ymin < 70%) | 100 to 1000 | Cc1c(OCCCN2CCN(CC(=O)Nc3ccc4c(C5CCC(=O)NC5=O)nn(C)c4c3)[C@H](C(F)(F)F)C2)cccc1-c1ccc(N2CCc3cccc(C(=O)Nc4nc5ccccc5s4)c3C2)nc1C(=O)O (stereo partly drawn) [Compound 187a, 6-(8-(benzo[d]thiazol-2-ylcarbamoyl)-3,4-dihydroisoquinolin-2(1H)-yl)-3-(3-(3-((3S)-4-(2-((3-(2,6-dioxopiperidin-3-yl)-1-methyl-1H-indazol-6-yl)amino)-2-oxoethyl)-3-(trifluoromethyl)piperazin-1-yl)propoxy)-2-methylphenyl)picolinic acid] |
| A (Ymin < 50%) | < 100 | B (50% ≤ Ymin < 70%) | < 100 | Cc1c(OCCCN2CCN(CC(=O)Nc3ccc4c(C5CCC(=O)NC5=O)nn(C)c4c3)[C@@H](C(F)(F)F)C2)cccc1-c1ccc(N2CCc3cccc(C(=O)Nc4nc5ccccc5s4)c3C2)nc1C(=O)O (stereo partly drawn) [Compound 187b, 6-(8-(benzo[d]thiazol-2-ylcarbamoyl)-3,4-dihydroisoquinolin-2(1H)-yl)-3-(3-(3-((3R)-4-(2-((3-(2,6-dioxopiperidin-3-yl)-1-methyl-1H-indazol-6-yl)amino)-2-oxoethyl)-3-(trifluoromethyl)piperazin-1-yl)propoxy)-2-methylphenyl)picolinic acid] |
| B (50% ≤ Ymin < 70%) | 100 to 1000 | – | – | Cc1c(OCCC[C@@H]2CCN(CC(=O)Nc3ccc4c(C5CCC(=O)NC5=O)nn(C)c4c3)CC2(F)F)cccc1-c1ccc(N2CCc3cccc(C(=O)Nc4nc5ccccc5s4)c3C2)nc1C(=O)O (stereo partly drawn) [Compound 193a, 6-(8-(benzo[d]thiazol-2-ylcarbamoyl)-3,4-dihydroisoquinolin-2(1H)-yl)-3-(3-(3-((4R)-1-(2-((3-(2,6-dioxopiperidin-3-yl)-1-methyl-1H-indazol-6-yl)amino)-2-oxoethyl)-3,3-difluoropiperidin-4-yl)propoxy)-2-methylphenyl)picolinic acid] |
| B (50% ≤ Ymin < 70%) | 100 to 1000 | – | – | Cc1c(OCCC[C@H]2CCN(CC(=O)Nc3ccc4c(C5CCC(=O)NC5=O)nn(C)c4c3)CC2(F)F)cccc1-c1ccc(N2CCc3cccc(C(=O)Nc4nc5ccccc5s4)c3C2)nc1C(=O)O (stereo partly drawn) [Compound 193b] |

Continued, compound first:

| SMILES | Ymin (24 h) | DC50 (24 h, read-out: EC50 (24 h)) [nM] | Ymin (6 h) | DC50 (6 h, read-out: EC50 (6 h)) [nM] |
| --- | --- | --- | --- | --- |
| Cc1c(OCC(F)(F)CN2C[C@@H](C)N(CC(=O)N3CCN(c4ccc5c(C6CCC(=O)NC6=O)nn(C)c5c4)CC3)[C@@H](C)C2)cccc1-c1ccc(N2CCc3cccc(C(=O)Nc4nc5ccccc5s4)c3C2)nc1C(=O)O (stereo partly drawn) [Compound 185a, 6-[8-(1,3-benzothiazol-2-ylcarbamoyl)-3,4-dihydro-1H-isoquinolin-2-yl]-3-[3-[3-[(3R,5S)-4-[2-[4-[3-(2,6-dioxo-3-piperidyl)-1-methyl-indazol-6-yl]piperazin-1-yl]-2-oxo-ethyl]-3,5-dimethyl-piperazin-1-yl]-2,2-difluoro-propoxy]-2-methyl-phenyl]pyridine-2-carboxylic acid] | A (Ymin < 50%) | < 100 | – | – |
| Cc1c(OCCCC[C@@H]2CCCN(CC(=O)Nc3cccc4c(C5CCC(=O)NC5=O)nn(C)c34)C2)cccc1-c1ccc(N2CCc3cccc(C(=O)Nc4nc5ccccc5s4)c3C2)nc1C(=O)O (stereo partly drawn) [Compound 186a, 6-[8-(1,3-benzothiazol-2-ylcarbamoyl)-3,4-dihydro-1H-isoquinolin-2-yl]-3-[3-[4-[(3R)-1-[2-[[3-(2,6-dioxo-3-piperidyl)-1-methyl-indazol-7-yl]amino]-2-oxo-ethyl]-3-piperidyl]butoxy]-2-methyl-phenyl]pyridine-2-carboxylic acid] | B (50% ≤ Ymin < 70%) | < 100 | – | – |
| Cc1c(OCCCC[C@H]2CCCN(CC(=O)Nc3cccc4c(C5CCC(=O)NC5=O)nn(C)c34)C2)cccc1-c1ccc(N2CCc3cccc(C(=O)Nc4nc5ccccc5s4)c3C2)nc1C(=O)O (stereo partly drawn) [Compound 186b, 6-[8-(1,3-benzothiazol-2-ylcarbamoyl)-3,4-dihydro-1H-isoquinolin-2-yl]-3-[3-[4-[(3S)-1-[2-[[3-(2,6-dioxo-3-piperidyl)-1-methyl-indazol-7-yl]amino]-2-oxo-ethyl]-3-piperidyl]butoxy]-2-methyl-phenyl]pyridine-2-carboxylic acid] | C (Ymin ≥ 70%) | 1000 to 10000 | – | – |
| Cc1c(OCC2CC3(CCN(CCN4CCN(c5cccc6c(C7CCC(=O)NC7=O)nn(C)c56)CC4)CC3)C2)cccc1-c1ccc(N2CCc3cccc(C(=O)Nc4nc5ccccc5s4)c3C2)nc1C(=O)O (stereo not drawn) [Compound 188, 6-[8-(1,3-benzothiazol-2-ylcarbamoyl)-3,4-dihydro-1H-isoquinolin-2-yl]-3-[3-[[7-[2-[4-[3-(2,6-dioxo-3-piperidyl)-1-methyl-indazol-7-yl]piperazin-1-yl]ethyl]-7-azaspiro[3.5]nonan-2-yl]methoxy]-2-methyl-phenyl]pyridine-2-carboxylic acid] | A (Ymin < 50%) | < 100 | – | – |
| Cc1c(OCCCN2CCN(CC3CCN(c4ccc5c(C6CCC(=O)NC6=O)nn(C)c5c4)CC3)CC2)cccc1-c1ccc(N2CCc3cccc(C(=O)Nc4nc5ccccc5s4)c3C2)nc1C(=O)O (stereo not drawn) [Compound 189, 6-(8-(benzo[d]thiazol-2-ylcarbamoyl)-3,4-dihydroisoquinolin-2(1H)-yl)-3-(3-(3-(4-((1-(3-(2,6-dioxopiperidin-3-yl)-1-methyl-1H-indazol-6-yl)piperidin-4-yl)methyl)piperazin-1-yl)propoxy)-2-methylphenyl)picolinic acid] | A (Ymin < 50%) | < 100 | – | – |
| Cc1c(Oc2ccc(CCCC(=O)N3CCN(c4cccc5c(C6CCC(=O)NC6=O)nn(C)c45)CC3)cc2)cccc1-c1ccc(N2CCc3cccc(C(=O)Nc4nc5ccccc5s4)c3C2)nc1C(=O)O (stereo not drawn) [Compound 191, 6-(8-(benzo[d]thiazol-2-ylcarbamoyl)-3,4-dihydroisoquinolin-2(1H)-yl)-3-(3-(4-(4-(4-(3-(2,6-dioxopiperidin-3-yl)-1-methyl-1H-indazol-7-yl)piperazin-1-yl)-4-oxobutyl)phenoxy)-2-methylphenyl)picolinic acid] | B (50% ≤ Ymin < 70%) | < 100 | – | – |
| Cc1c(OCCCC2CCN(CCC3CCN(c4ccc5c(C6CCC(=O)NC6=O)nn(C)c5c4)CC3)CC2)cccc1-c1ccc(N2CCc3cccc(C(=O)Nc4nc5ccccc5s4)c3C2)nc1C(=O)O (stereo not drawn) [Compound 192, 6-(8-(benzo[d]thiazol-2-ylcarbamoyl)-3,4-dihydroisoquinolin-2(1H)-yl)-3-(3-(3-(1-(2-(1-(3-(2,6-dioxopiperidin-3-yl)-1-methyl-1H-indazol-6-yl)piperidin-4-yl)ethyl)piperidin-4-yl)propoxy)-2-methylphenyl)picolinic acid] | A (Ymin < 50%) | < 100 | – | – |
| Cc1c(OCCOC2CCN(CC(=O)Nc3cccc4c(C5CCC(=O)NC5=O)nn(C)c34)CC2)cccc1-c1ccc(N2CCc3cccc(C(=O)Nc4nc5ccccc5s4)c3C2)nc1C(=O)O (stereo not drawn) [Compound 194, 6-[8-(1,3-benzothiazol-2-ylcarbamoyl)-3,4-dihydro-1H-isoquinolin-2-yl]-3-[3-[2-[[1-[2-[[3-(2,6-dioxo-3-piperidyl)-1-methyl-indazol-7-yl]amino]-2-oxo-ethyl]-4-piperidyl]oxy]ethoxy]-2-methyl-phenyl]pyridine-2-carboxylic acid] | B (50% ≤ Ymin < 70%) | 100 to 1000 | B (50% ≤ Ymin < 70%) | 100 to 1000 |

Reference: US20240238423A9, “TETRAHYDROISOQUINOLINE HETEROBIFUNCTIONAL BCL-XL DEGRADERS” (Treeline Biosciences, Inc., priority 2022, published 2024)
